Laboratory results published in ChEMBL document CHEMBL1145885, “Synthesis and GABA(A) receptor activity of a 6,19-oxido analogue of pregnanolone” (Bioorg Med Chem Lett, 2003).
Calls of active or inactive are those of the source. The calls are words filed in the database; no cut-off is given here.

What was measured:
Cricetinae gen. sp. = experiment: Compound was tested for reduction of 3-mercaptopropionic acid induced seizures in hamsters at 20 mg/kg; Active; type: functional, organism-based; parameters: dose 20 mg/kg; details: Cricetulus griseus
[1] = target: GABA-A receptor; anion channel (Homo sapiens) (UniProt P14867+P47870+P18507+P28472+P48169+Q99928+Q9UN88+P34903+O00591+O14764+Q8N1C3+P18505+P78334+P47869+P31644+Q16445); experiment: GABA-induced 36Cl- influx in hamster cerebral cortex synaptoneurosomes at 0.1 uM; type: functional, tissue-based; details: Cricetulus griseus

Activity [1]: Active
SMILES: CC(=O)[C@H]1CCC2C3CC4OC[C@@]5(CC[C@@H](O)C=C45)C3CC[C@@]21C (some centres not stated)
Activity (Cricetinae gen. sp.): Active
